In article PMC5731253 (Journal of medicinal chemistry, 2017):
Entries after “also recorded” stand apart in the source; their conditions may differ.

What was measured:
[1] = tested on: human embryonic lung (HEL) fibroblasts; test: Minimum cytotoxic concentration, HEL cell morphology
carboxypeptidase Y = carboxypeptidase Y (Saccharomyces cerevisiae, UniProt P00729); test: Carboxypeptidase Y-mediated cleavage monitored by 31P-NMR; type: in vitro ADME; settings: for time to complete conversion of the starting material: carboxypeptidase Y; for conversion of the starting material by carboxypeptidase Y: result in words
HSV-1 (KOS) = test: Anti-HSV-1; type: cell-based, herpes simplex virus type 1; settings: HEL cell cultures
HSV-2 (G) = test: Anti-HSV-2; type: cell-based, herpes simplex virus type 2; settings: HEL cell cultures
[2] = tested on: thymidine kinase-deficient (TK−) HSV-1 KOS strain; type: cell-based, herpes simplex virus type 1; settings: HEL cell cultures; for Antiviral Activity EC50 HSV-1 TK (KOS): TK-deficient, ACV-resistant strain
HIV-1 = HIV-1 inhibition in MT-4 cell cultures; type: cell-based, human immunodeficiency virus type 1; settings: HIV-1, MT-4 cells

carboxypeptidase Y, sequence (P00729 112-532): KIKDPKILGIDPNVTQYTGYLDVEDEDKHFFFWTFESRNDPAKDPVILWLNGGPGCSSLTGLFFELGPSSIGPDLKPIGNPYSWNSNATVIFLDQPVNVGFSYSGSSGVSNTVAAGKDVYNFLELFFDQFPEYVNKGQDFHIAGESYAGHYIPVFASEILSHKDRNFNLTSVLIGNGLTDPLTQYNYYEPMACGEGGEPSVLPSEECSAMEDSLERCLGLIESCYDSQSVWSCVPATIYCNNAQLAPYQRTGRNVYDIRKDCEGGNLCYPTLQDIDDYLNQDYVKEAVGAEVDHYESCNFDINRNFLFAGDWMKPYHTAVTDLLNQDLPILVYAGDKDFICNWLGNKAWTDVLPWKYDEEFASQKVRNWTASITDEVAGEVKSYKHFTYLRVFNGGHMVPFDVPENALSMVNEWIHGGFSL

Row | SMILES | Cytotoxicity MCC ([1]; Table 4 (HCMV/VZV assays)) [µM] | Cytotoxicity MCC ([1]; Table 3 (HSV assays)) [µM] | Antiviral Activity EC50 HSV-1 TK (KOS) [2] | also measured
1 | C[C@H](NP(=O)(OCC(CO)CCn1cnc2c(Cl)nc(N)nc21)Oc1ccccc1)C(=O)OCc1ccccc1 (mixture of isomers) [Compound 60] | >100 |  |  | time to complete conversion of the starting material (carboxypeptidase Y): ≤ 0.5 h; conversion of the starting material by carboxypeptidase Y (carboxypeptidase Y): completely converted and full
2 | Nc1nc(O)c2ncn(CSC(CO)CO)c2n1 [Compound 3] |  |  |  | Antiviral Activity EC50 HSV-1 (KOS) (HSV-1 (KOS)): sub-micromolar activity; Antiviral Activity EC50 HSV-2 (G) (HSV-2 (G)): sub-micromolar activity
3 | CC(C)OC(=O)[C@H](C)NP(=O)(OCC(COP(=O)(N[C@@H](C)C(=O)OC(C)C)Oc1cccc2ccccc12)OCn1cnc2c(=O)[nH]c(N)nc21)Oc1cccc2ccccc12 (stereo partly drawn) [Compound 15, 2-amino-9-{[(1,3-dihydroxypropan-2-yl)oxy]methyl}-6,9-dihydro-1H-purin-6-one-[1-naphthyl(isopropoxy-L-alaninyl)] diphosphate] | >100 | ≥100 | marginal activity | 
4 | CC(C)OC(=O)[C@H](C)NP(=O)(OCC(CO)OCn1cnc2c(=O)[nH]c(N)nc21)Oc1cccc2ccccc12 (stereo partly drawn) [Compound 16, 2-amino-9-{[(1,3-dihydroxypropan-2-yl)oxy]methyl}-6,9-dihydro-1H-purin-6-one-[1-naphthyl(isopropoxy-L-alaninyl)]phosphate] | >100 | >100 | marginal activity | conversion of the starting material by carboxypeptidase Y (carboxypeptidase Y): slow and incomplete conversion; also recorded: partial
5 | C[C@H](NP(=O)(OCC(COP(=O)(N[C@@H](C)C(=O)OCc1ccccc1)Oc1ccccc1)OCn1cnc2c(=O)[nH]c(N)nc21)Oc1ccccc1)C(=O)OCc1ccccc1 (stereo partly shown) [Compound 17] | >100 | >100 | considerable activity | 
6 | C[C@H](NP(=O)(OCC(COP(=O)(N[C@@H](C)C(=O)OCc1ccccc1)Oc1cccc2ccccc12)OCn1cnc2c(=O)[nH]c(N)nc21)Oc1cccc2ccccc12)C(=O)OCc1ccccc1 (stereo partly shown) [Compound 18] | >50 |  |  | fold difference in EC50 values between HSV-1 TK+ and TK− strains [2]: < 2.5 fold
7 | CC(C)(NP(=O)(OCC(COP(=O)(NC(C)(C)C(=O)OCc1ccccc1)Oc1ccccc1)OCn1cnc2c(=O)[nH]c(N)nc21)Oc1ccccc1)C(=O)OCc1ccccc1 (stereo not shown) [Compound 19] |  |  |  | fold difference in EC50 values between HSV-1 TK+ and TK− strains [2]: < 2.5 fold
8 | CC(C)(NP(=O)(OCC(COP(=O)(NC(C)(C)C(=O)OCc1ccccc1)Oc1cccc2ccccc12)OCn1cnc2c(=O)[nH]c(N)nc21)Oc1cccc2ccccc12)C(=O)OCc1ccccc1 (stereo not shown) [Compound 21] |  | >100 | considerable activity | 
9 | CC(C)(NP(=O)(OCC(CO)OCn1cnc2c(=O)[nH]c(N)nc21)Oc1cccc2ccccc12)C(=O)OCc1ccccc1 (stereo not shown) [Compound 22] | >50 | >100 |  | fold difference in EC50 values between HSV-1 TK+ and TK− strains [2]: < 2.5 fold
10 | C[C@H](NP(=O)(OCC(CO)OCn1cnc2c(=O)[nH]c(N)nc21)Oc1cccc2ccccc12)C(=O)OCc1ccccc1 (stereo partly shown) [Compound 28] | >100 | >100 | considerable activity | 
11 | C[C@H](NP(=O)(OCC(CCn1cnc2c(=O)[nH]c(/N=C/N(C)C)nc21)COP(=O)(N[C@@H](C)C(=O)OCc1ccccc1)Oc1ccccc1)Oc1ccccc1)C(=O)OCc1ccccc1 (stereo partly shown) [Compound 30] |  | >100 | inactive | Antiviral Activity EC50 HSV-1 (KOS) (HSV-1 (KOS)): inactive; Antiviral Activity EC50 HSV-2 (G) (HSV-2 (G)): inactive
12 | C[C@H](NP(=O)(OCC(CCn1cnc2c(=O)[nH]c(/N=C/N(C)C)nc21)COP(=O)(N[C@@H](C)C(=O)OCc1ccccc1)Oc1cccc2ccccc12)Oc1cccc2ccccc12)C(=O)OCc1ccccc1 (stereo partly shown) [Compound 31] |  |  | inactive | Antiviral Activity EC50 HSV-1 (KOS) (HSV-1 (KOS)): inactive; Antiviral Activity EC50 HSV-2 (G) (HSV-2 (G)): inactive
13 | C[C@H](NP(=O)(OCC(CCn1cnc2c(=O)[nH]c(N)nc21)COP(=O)(N[C@@H](C)C(=O)OCc1ccccc1)Oc1cccc2ccccc12)Oc1cccc2ccccc12)C(=O)OCc1ccccc1 (stereo partly shown) [Compound 37] | >50 |  | inactive | Antiviral Activity EC50 HSV-1 (KOS) (HSV-1 (KOS)): inactive; Antiviral Activity EC50 HSV-2 (G) (HSV-2 (G)): inactive
14 | CC(C)(NP(=O)(OCC(CCn1cnc2c(=O)[nH]c(N)nc21)COP(=O)(NC(C)(C)C(=O)OCc1ccccc1)Oc1ccccc1)Oc1ccccc1)C(=O)OCc1ccccc1 (stereo not shown) [Compound 38] | >50 | >100 | inactive | Antiviral Activity EC50 HSV-1 (KOS) (HSV-1 (KOS)): inactive; Antiviral Activity EC50 HSV-2 (G) (HSV-2 (G)): inactive
15 | CC(C)(NP(=O)(OCC(CO)CCn1cnc2c(=O)[nH]c(N)nc21)Oc1ccccc1)C(=O)OCc1ccccc1 (stereo not shown) [Compound 39] | >50 | >100 |  | 
16 | CC(C)(NP(=O)(OCC(CCn1cnc2c(=O)[nH]c(N)nc21)COP(=O)(NC(C)(C)C(=O)OCc1ccccc1)Oc1cccc2ccccc12)Oc1cccc2ccccc12)C(=O)OCc1ccccc1 (stereo not shown) [Compound 40] | >50 | 100 | inactive | Antiviral Activity EC50 HSV-1 (KOS) (HSV-1 (KOS)): inactive; Antiviral Activity EC50 HSV-2 (G) (HSV-2 (G)): inactive
17 | CC(C)(NP(=O)(OCC(CO)CCn1cnc2c(=O)[nH]c(N)nc21)Oc1cccc2ccccc12)C(=O)OCc1ccccc1 (stereo not shown) [Compound 41] | >50 | >100 |  | 

Row | SMILES | Cytotoxicity MCC ([1]; Table 4 (HCMV/VZV assays)) [µM] | Cytotoxicity MCC ([1]; Table 3 (HSV assays)) [µM] | Antiviral Activity EC50 HSV-1 TK (KOS) [2] | also measured
18 | C[C@H](NP(=O)(OCC(CO)CCn1cnc2c(=O)[nH]c(N)nc21)Oc1ccccc1)C(=O)OCc1ccccc1 (stereo partly shown) [Compound 42] | >50 | >100 |  | selectivity index (ratio IC50/EC50) (HIV-1): > 15
19 | C[C@H](NP(=O)(OCC(CO)CCn1cnc2c(=O)[nH]c(N)nc21)Oc1cccc2ccccc12)C(=O)OCc1ccccc1 (stereo partly shown) [Compound 45] | >50 | >100 |  | conversion of the starting material by carboxypeptidase Y (carboxypeptidase Y): slow and incomplete conversion; also recorded: partial
20 | C[C@H](NP(=O)(OCC(CCn1cnc2c(Cl)nc(N)nc21)COP(=O)(N[C@@H](C)C(=O)OCc1ccccc1)Oc1ccccc1)Oc1ccccc1)C(=O)OCc1ccccc1 (stereo partly shown) [Compound 59] |  |  |  | fold loss in antiviral activity versus mono-ProTide 60 (HIV-1): 7 fold
21 | COc1nc(N)nc2c1ncn2CCC(COP(=O)(N[C@@H](C)C(=O)OCc1ccccc1)Oc1ccccc1)COP(=O)(N[C@@H](C)C(=O)OCc1ccccc1)Oc1ccccc1 (stereo partly shown) [Compound 61] | >50 |  |  | 
22 | COc1nc(N)nc2c1ncn2CCC(COP(=O)(N[C@@H](C)C(=O)OCC(C)(C)C)Oc1cccc2ccccc12)COP(=O)(N[C@@H](C)C(=O)OCC(C)(C)C)Oc1cccc2ccccc12 (stereo partly shown) [Compound 62] | ≥20 | ≥100 |  | 
23 | CCCOC(=O)[C@H](C)NP(=O)(OCC(CCn1cnc2c(OC)nc(N)nc21)COP(=O)(N[C@@H](C)C(=O)OCCC)Oc1cccc2ccccc12)Oc1cccc2ccccc12 (stereo partly shown) [Compound 63] | ≥50 | ≥100 |  | conversion of the starting material by carboxypeptidase Y (carboxypeptidase Y): fast conversion; also recorded: partial
24 | CCC(C)(C)COC(=O)[C@H](C)NP(=O)(OCC(CCn1cnc2c(OC)nc(N)nc21)COP(=O)(N[C@@H](C)C(=O)OCC(C)(C)CC)Oc1cccc2ccccc12)Oc1cccc2ccccc12 (stereo partly shown) [Compound 64] |  | ≥100 |  | 
25 | COc1nc(N)nc2c1ncn2CCC(CO)COP(=O)(N[C@@H](C)C(=O)OCc1ccccc1)Oc1ccccc1 (stereo partly shown) [Compound 66] |  |  | retention of some activity | selectivity index (ratio IC50/EC50) (HIV-1): 21
26 | COc1nc(N)nc2c1ncn2CCC(CO)COP(=O)(N[C@@H](C)C(=O)OCc1ccccc1)Oc1cccc2ccccc12 (stereo partly shown) [Compound 67] | >50 |  | retention of some activity | 
27 | COc1nc(N)nc2c1ncn2CCC(CO)COP(=O)(N[C@@H](C)C(=O)OCC(C)(C)C)Oc1cccc2ccccc12 (stereo partly shown) [Compound 68] | >50 |  | retention of some activity | 
28 | CCCOC(=O)[C@H](C)NP(=O)(OCC(CO)CCn1cnc2c(OC)nc(N)nc21)Oc1cccc2ccccc12 (stereo partly shown) [Compound 69] | ≥50 | 100 |  | time to complete conversion of the starting material (carboxypeptidase Y): ≤ 2 h; conversion of the starting material by carboxypeptidase Y (carboxypeptidase Y): complete conversion and full
29 | COC(=O)[C@H](C)NP(=O)(OCC(CO)CCn1cnc2c(OC)nc(N)nc21)Oc1cccc2ccccc12 (stereo partly shown) [Compound 70] | ≥50 | ≥100 |  | 
30 | CCC(C)(C)COC(=O)[C@H](C)NP(=O)(OCC(CO)CCn1cnc2c(OC)nc(N)nc21)Oc1cccc2ccccc12 (stereo partly shown) [Compound 71] | ≥50 | 100 |  | 
31 | COc1nc(N)nc2c1ncn2CCC(CO)COP(=O)(N[C@@H](C)C(=O)OC1CCCCC1)Oc1cccc2ccccc12 (stereo partly shown) [Compound 72] |  | ≥100 | retention of some activity | 
32 | CCOC(=O)[C@H](C)NP1(=O)OCC(OCn2cnc3c(=O)[nH]c(N)nc32)CO1 (stereo partly shown) [Compound 74] |  |  |  | selectivity index (ratio IC50/EC50) (HIV-1): > 7
33 | C[C@H](NP1(=O)OCC(OCn2cnc3c(Cl)nc(N)nc32)CO1)C(=O)OCc1ccccc1 (stereo partly shown) [Compound 75] |  |  |  | time to complete conversion of the starting material (carboxypeptidase Y): ≤ 1 h; conversion of the starting material by carboxypeptidase Y (carboxypeptidase Y): completely metabolised
34 | CC(=O)OCC(COP(=O)(N[C@@H](C)C(=O)OCc1ccccc1)Oc1ccccc1)OCn1cnc2c(Cl)nc(N)nc21 (stereo partly shown) [Compound 77] |  |  |  | conversion of the starting material by carboxypeptidase Y (carboxypeptidase Y): quickly metabolised
